Data on 17 molecules can be found in patent US20120225061A1, “TETRASUBSTITUTED CYCLOHEXYL COMPOUNDS AS KINASE INHIBITORS” (priority 2011, published 2012).

For orientation: pIC50 means the IC50 on a negative log10 scale, so that one unit is a factor of ten. Lower therefore signals a high IC50. The term pEC50 denotes −log10 of the EC50, conventionally taken in molar units.

pEC50, pIC50: −log10 of the molar value.

The target of assay [1] is Pim1 kinase (Homo sapiens, UniProt P11309). In words: KinaseGlo Pim1 ATP depletion assay. The format is biochemical. The note with it: Table 4, 2.5 nM PIM1, 20 μM ATP, 40 μM BAD peptide. As to the method:
The activity of PIM1 is measured using a luciferase-luciferin based ATP detection reagent to quantify ATP depletion resulting from kinase-catalyzed phosphoryl transfer to a peptide substrate. Compounds to be tested are dissolved in 100% DMSO and directly distributed into white 384-well plates at 0.5 μl per well. […] After 15 minutes, 10 μl of 40 μM ATP in assay buffer is added. […] The reaction is performed until approximately 50% of the ATP is depleted, then stopped with the addition of 20 μl KinaseGlo Plus (Promega Corporation) solution. The stopped reaction is incubated for 10 minutes and the remaining ATP detected via luminescence on the Victor2 (Perkin Elmer).

Assay [2] addresses Pim2 kinase (Homo sapiens, UniProt Q9P1W9). The experiment in a line: KinaseGlo Pim2 ATP depletion assay. The format is biochemical. Conditions: Table 4, 5 nM PIM2, 4 μM ATP, 10 μM BAD peptide. On the procedure: (§1) The activity of PIM2 is measured using a luciferase-luciferin based ATP detection reagent to quantify ATP depletion resulting from kinase-catalyzed phosphoryl transfer to a peptide substrate. Compounds to be tested are dissolved in 100% DMSO and directly distributed into white 384-well plates at 0.5 μl per well. […] After 15 minutes, 10 μl of 8 μM ATP in assay buffer is added. Final assay concentrations are 5 nM PIM2, 4 μM ATP, 10 μM BAD peptide and 2.5% DMSO. The reaction is performed until approximately 50% of the ATP is depleted, then stopped with the addition of 20 μl KinaseGlo Plus (Promega Corporation) solution. The stopped reaction is incubated for 10 minutes and the remaining ATP detected via luminescence on the Victor2 (Perkin Elmer).
In general terms: Kinase-Glo reads ATP consumption through a luciferase reaction.

Assay [3] addresses Pim3 kinase (Homo sapiens, UniProt Q86V86). The experiment in a line: KinaseGlo Pim3 ATP depletion assay. The note with it: Table 4, 40 μM ATP, 100 μM BAD peptide. It is filed as biochemical. As to the method:
as §1, with “of PIM3” for “of PIM2”, “of 80” for “of 8”, “nM PIM1, 40” for “nM PIM2, 4”, “ATP, 100” for “ATP, 10”, “stopped by” for “stopped with”

The subject of assay [4] is KMS11 (human myeloma cell line). In words: Cell proliferation assay (CellTiter-Glo) in KMS11 cells. The format is cell-based. Conditions: KMS-11, 72 h, Table 4, 3 days, read-out: KMS11-luc EC50. The method, boiled down: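 KMS11 cells at 2000 per well in IMDM/10% FBS were exposed to compound for 3 days. Viability was read by CellTiter-Glo luminescence.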
Background: Cellular ATP, detected with luciferase, serves as a proxy for viable cell number.

Pim2 kinase, sequence (Q9P1W9 whole entry): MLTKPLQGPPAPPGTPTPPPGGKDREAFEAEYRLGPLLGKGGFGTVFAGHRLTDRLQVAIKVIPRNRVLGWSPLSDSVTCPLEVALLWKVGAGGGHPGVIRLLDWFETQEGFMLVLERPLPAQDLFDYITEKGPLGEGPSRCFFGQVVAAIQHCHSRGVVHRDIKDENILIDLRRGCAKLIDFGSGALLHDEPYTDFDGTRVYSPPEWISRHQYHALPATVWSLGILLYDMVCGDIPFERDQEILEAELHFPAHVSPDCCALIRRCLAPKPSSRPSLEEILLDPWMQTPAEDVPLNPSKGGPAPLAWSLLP
Pim1 kinase, sequence (P11309 whole entry): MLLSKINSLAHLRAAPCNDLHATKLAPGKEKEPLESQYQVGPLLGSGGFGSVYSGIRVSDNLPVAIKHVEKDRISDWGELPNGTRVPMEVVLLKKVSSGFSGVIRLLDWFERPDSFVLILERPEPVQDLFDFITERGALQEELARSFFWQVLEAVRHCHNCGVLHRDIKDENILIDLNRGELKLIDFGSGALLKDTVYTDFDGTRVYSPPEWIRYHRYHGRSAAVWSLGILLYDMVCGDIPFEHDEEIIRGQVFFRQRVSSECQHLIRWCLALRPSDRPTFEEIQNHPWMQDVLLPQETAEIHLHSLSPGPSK

Regarding `CC[C@]1(O)[C@H](C)C[C@H](c2ccncc2NC(=O)c2nc(-c3c(F)cccc3F)ncc2N)C[C@@H]1O` [Example 35, 5-amino-2-(2,6-difluorophenyl)-N-(4-((1S,3S,4S,5R)-4-ethyl-3,4-dihydroxy-5-methylcyclohexyl)pyridin-3-yl) pyrimidine-4-carboxamide], the pIC50 is 7.31 in assay [1], 6.17 in assay [2] and 6.82 in assay [3]. Further, the pEC50 in assay [4] was at most 5.00.
In the same order, the values of `C[C@H]1C[C@@H](c2ccncc2NC(=O)c2nc(Br)ccc2N)C[C@@H](O)[C@]1(C)O` [Example 38, 3-amino-6-bromo-N-(4-((1R,3R,4R,5S)-3,4-dihydroxy-4,5-dimethylcyclohexyl)pyridin-3-yl) picolinamide] are 8.44, 7.61, 8.03 and at most 5.00.
In the same order, the values of `C[C@H]1C[C@@H](c2ccncc2NC(=O)c2ccnc(-c3c(F)cccc3F)n2)C[C@@H](O)[C@@]1(O)CO` [Example 39, 2-(2,6-difluorophenyl)-N-(4-((1R,3R,4S,5S)-3,4-dihydroxy-4-(hydroxymethyl)-5-methylcyclohexyl)pyridin-3-yl) pyrimidine-4-carboxamide] are 8.33, 7.59, 8.35 and at most 5.00.
In the same order, the values of `C[C@@H]1C[C@H](c2ccncc2NC(=O)c2ccnc(-c3c(F)cccc3F)n2)C[C@H](O)[C@]1(O)CO` [Example 40, 2-(2,6-difluorophenyl)-N-(4-((1S,3S,4R,5R)-3,4-dihydroxy-4-(hydroxymethyl)-5-methylcyclohexyl)pyridin-3-yl) pyrimidine-4-carboxamide] are 6.68, 5.54, 6.41 and at most 5.00.
On to `CC[C@]1(O)[C@H](C)C[C@H](c2ccncc2NC(=O)c2ccc(F)c(-c3c(F)cccc3F)n2)C[C@@H]1O` [Example 42, 6-(2,6-difluorophenyl)-N-(4-((1S,3S,4S,5R)-4-ethyl-3,4-dihydroxy-5-methylcyclohexyl)pyridin-3-yl)-5-fluoropicolinamide], for which the pIC50 in assay [1] is 7.35; in assay [2], 6.07; in assay [3] it was 6.36. Further, in assay [4], the pEC50 was at most 5.00.
In the same order, the values of `CC(=O)OC[C@]1(O)[C@H](O)C[C@H](c2ccncc2NC(=O)c2ccc(F)c(-c3c(F)cccc3F)n2)C[C@@H]1C` [Example 43, ((1S,2R,4R,6S)-4-(3-(6-(2,6-difluorophenyl)-5-fluoropicolinamido)pyridin-4-yl)-1,2-dihydroxy-6-methylcyclohexyl) methylacetate] are 9.40, 8.70, 8.70 and 5.81.
For `CC(=O)OC[C@]1(O)[C@H](C)C[C@H](c2ccncc2NC(=O)c2ccc(F)c(-c3c(F)cccc3F)n2)C[C@@H]1O` [Example 44, ((1R,2S,4S,6R)-4-(3-(6-(2,6-difluorophenyl)-5-fluoropicolinamido)pyridin-4-yl)-1,2-dihydroxy-6-methylcyclohexyl) methylacetate], the values for the pIC50 in assay [1], in assay [2] and in assay [3] were 8.07, 7.35 and 7.53, respectively. Further, in assay [4], the pEC50 is at most 5.00.
`C[C@H]1C[C@@H](c2ccncc2NC(=O)c2ccc(F)c(-c3c(F)ccc(C#N)c3F)n2)C[C@@H](O)[C@]1(C)O` [Example 46, 6-(3-cyano-2,6-difluorophenyl)-N-(4-((1R,3R,4R,5S)-3,4-dihydroxy-4,5-dimethylcyclohexyl)pyridin-3-yl)-5-fluoropicolinamide]: the figures for the negative logarithm of the IC50 (pIC50) in assay [1], in assay [2] and in assay [3] were 8.85, 7.96 and 8.46, respectively. Also, in assay [4], the pEC50 is at most 5.00.
The corresponding values for `C[C@H]1C[C@@H](c2ccncc2NC(=O)c2nc(-c3c(F)cccc3F)c(F)cc2N)C[C@@H](O)[C@]1(C)O` [Example 48, 3-amino-6-(2,6-difluorophenyl)-N-(4-((1R,3R,4R,5S)-3,4-dihydroxy-4,5-dimethylcyclohexyl)pyridin-3-yl)-5-fluoropicolinamide] are 9.40, 8.89, 8.85 and 6.06.
The corresponding values for `COc1cc(F)c(-c2cccc(C(=O)Nc3cnccc3[C@H]3C[C@@H](O)[C@](C)(O)[C@@H](C)C3)n2)c(F)c1` [Example 50, 6-(2,6-difluoro-4-methoxyphenyl)-N-(4-((1R,3R,4R,5S)-3,4-dihydroxy-4,5-dimethylcyclohexyl)pyridin-3-yl) picolinamide] are 9.22, 8.46, 8.82 and 5.32.
In the same order, the values of `C[C@H]1C[C@@H](c2ccncc2NC(=O)c2nc(-c3nccs3)ccc2N)C[C@@H](O)[C@]1(C)O` [Example 52, 3-amino-N-(4-((1R,3R,4R,5S)-3,4-dihydroxy-4,5-dimethylcyclohexyl)pyridin-3-yl)-6-(thiazol-2-yl) picolinamide] are 8.70, 7.87, 8.44 and 5.01.
Turning to `C[C@H]1C[C@@H](c2ccncc2NC(=O)c2ccc(F)c(-c3ccc(C#N)cc3F)n2)C[C@@H](O)[C@]1(C)O` [Example 54, 6-(4-cyano-2-fluorophenyl)-N-(4-((1R,3R,4R,5S)-3,4-dihydroxy-4,5-dimethylcyclohexyl)pyridin-3-yl)-5-fluoropicolinamide], the results for the pIC50 in assay [1], in assay [2] and in assay [3] were 8.48, 7.17 and 7.92, respectively. For the same molecule, the pEC50 in assay [4] was at most 5.00.
In the same order, the values of `C[C@@H]1C[C@H](c2ccncc2NC(=O)c2ccc(F)c(-c3c(F)ccc(N)c3F)n2)C[C@H](O)[C@@]1(C)O` [Example 55, 6-(3-amino-2,6-difluorophenyl)-N-(4-((1S,3S,4S,5R)-3,4-dihydroxy-4,5-dimethylcyclohexyl)pyridin-3-yl)-5-fluoropicolinamide] are 7.90, 6.13, 6.66 and at most 5.00.
As to `C[C@H]1C[C@@H](c2ccncc2NC(=O)c2ccc(F)c(-c3c(F)ccc(N)c3F)n2)C[C@@H](O)[C@]1(C)O` [Example 56, 6-(3-amino-2,6-difluorophenyl)-N-(4-((1R,3R,4R,5S)-3,4-dihydroxy-4,5-dimethylcyclohexyl)pyridin-3-yl)-5-fluoropicolinamide], the negative-log IC50 (pIC50) in assay [1] was 9.40; in assay [2], 8.28; in assay [3] it was 8.54. The pEC50 in assay [4] is 5.10.
The corresponding values for `C[C@@H]1C[C@H](c2ccncc2NC(=O)c2cccc(-c3c(F)cccc3F)n2)C[C@H](O)[C@@]1(C)O` [Example 57, 6-(2,6-difluorophenyl)-N-(4-((1S,3S,4S,5R)-3,4-dihydroxy-4,5-dimethylcyclohexyl)pyridin-3-yl) picolinamide] are 7.82, 6.64, 6.99 and 5.18.
The corresponding values for `C[C@H]1C[C@@H](c2ccncc2NC(=O)c2cccc(-c3c(F)cccc3F)n2)C[C@@H](O)[C@]1(C)O` [Example 58, 6-(2,6-difluorophenyl)-N-(4-((1R,3R,4R,5S)-3,4-dihydroxy-4,5-dimethylcyclohexyl)pyridin-3-yl) picolinamide] are 9.40, 8.47, 8.59 and 5.22.
On to `C[C@@H]1C[C@H](c2ccncc2NC(=O)c2ccc(F)c(-c3c(F)cccc3F)n2)C[C@H](O)[C@]1(O)CO` [Example 60, 6-(2,6-difluorophenyl)-N-(4-((1S,3S,4R,5R)-3,4-dihydroxy-4-(hydroxymethyl)-5-methylcyclohexyl)pyridin-3-yl)-5-fluoropicolinamide], for which the figures for the negative-log IC50 (pIC50) in assay [1], in assay [2] and in assay [3] were 7.71, 5.77 and 6.48, respectively. Moreover, the pEC50 in assay [4] is at most 5.00.
